According to patent US10227331B2 (priority 2015, dated 2019):
Counter-ions that a name gives are not always drawn. Like-named read-outs stand apart in the source and are kept apart here.

Columns and labels:
[1] = tested on: P. aeruginosa expressing IMP-1, efflux− (MB9799); assay: Efflux: concentration of MBL inhibitor which restores susceptibility to imipenem; assay type: cell-based, Pseudomonas aeruginosa; details: imipenem at 2 μg/mL, in the presence of a class A, C, D serine β-lactamase inhibitor closely related to relebactam
From the text: (§1) The strain background is Pseudomonas aeruginosa PAO1.

[2] = biological target: VIM-1 (Pseudomonas aeruginosa (strain ATCC 15692 / DSM 22644 / CIP 104116 / JCM 14847 / LMG 12228 / 1C / PRS 101 / PAO1), UniProt A0A0F7KYQ8); assay: biochemical; details: CCF2-FA substrate, 2 hours at 25° C
In short: (§2)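 Fluorescence assay, CCF2-FA substrate (cephalosporin core linking 7-hydroxycoumarin to fluorescein); inhibitor + MBL + substrate, 2 h, 25° C. IC50 by 4-parameter fit, semi-log plot.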

[3] = biological target: NDM-1 (Klebsiella pneumoniae, UniProt C7C422); assay: biochemical; assay type: biochemical; details: CCF2-FA substrate, 2 hours at 25° C; read-out: NDM-1 IC50
In short: as §2

[4] = biological target: IMP-1 (Serratia marcescens, UniProt P52699); assay: biochemical; assay type: biochemical
In short: as §2

[5] = tested on: P. aeruginosa expressing IMP-1, efflux+ (MB9798); assay type: cell-based, Pseudomonas aeruginosa; details: for P. aeruginosa expressing IMP-1, efflux+ (MB9798) MITC95: imipenem at 2 μg/mL, in the presence of a class A, C, D serine β-lactamase inhibitor closely related to relebactam; for Efflux ratio: ratio MITC95 PA_9798/MITC95 PA_9799
From the text: as §1

[6] = tested on: Serratia marcescens expressing IMP-1 (CL5741); assay type: cell-based; details: with imipenem 1 μg/ml; 95% inhibition of bacterial growth
In short: (§3)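 Colonies from overnight 35 °C blood-agar cultures were suspended in saline, diluted 1:100 into 1.1× CAMHB and exposed to test compound with or without imipenem at 1 μg/ml. After 22–24 h at 35 °C, absorbance was read to find the concentration restoring imipenem susceptibility.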

[7] = tested on: Escherichia coli expressing NDM-1 (CLB30005, CLB30016); assay type: cell-based; details: with imipenem 1 μg/ml; 95% inhibition of bacterial growth
In short: as §3

[8] = tested on: Klebsiella pneumoniae expressing VIM-1 (IHMA599644); assay type: cell-based; details: with imipenem 1 μg/ml; 95% inhibition of bacterial growth
In short: as §3

[9] = CCF2-FA substrate, 2 hours at 25° C, read-out: IMP-1 IC50

Chain of IMP-1 (P52699 whole entry, looked up, species assumed): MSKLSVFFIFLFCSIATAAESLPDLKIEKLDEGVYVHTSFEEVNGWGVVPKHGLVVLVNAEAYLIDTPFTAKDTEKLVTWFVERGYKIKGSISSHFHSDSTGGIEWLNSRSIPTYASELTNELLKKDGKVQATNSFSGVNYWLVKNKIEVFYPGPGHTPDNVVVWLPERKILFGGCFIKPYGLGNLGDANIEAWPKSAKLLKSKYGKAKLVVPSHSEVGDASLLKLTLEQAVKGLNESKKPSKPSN
Chain of NDM-1 (C7C422 whole entry, looked up, species assumed): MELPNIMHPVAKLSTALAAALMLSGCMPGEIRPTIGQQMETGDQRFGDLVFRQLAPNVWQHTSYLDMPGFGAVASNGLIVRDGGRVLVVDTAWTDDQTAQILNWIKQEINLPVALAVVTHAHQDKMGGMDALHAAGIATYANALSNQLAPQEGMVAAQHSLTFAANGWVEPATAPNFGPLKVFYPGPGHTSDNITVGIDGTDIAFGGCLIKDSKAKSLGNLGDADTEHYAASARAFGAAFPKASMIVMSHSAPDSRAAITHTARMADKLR

Structure (SMILES)	P. aeruginosa expressing IMP-1, efflux− (MB9799) MITC95 [1]	IC50 [2]	IC50 [3]	IC50 [4, 9]	P. aeruginosa expressing IMP-1, efflux+ (MB9798) MITC95 [5]	Efflux ratio [5]	Serratia marcescens expressing IMP-1 (CL5741) MITC95 [6]	Escherichia coli expressing NDM-1 (CLB30016) MITC95 [7]	Klebsiella pneumoniae expressing VIM-1 (IHMA599644) MITC95 [8]	IC50 [4]
NCCS(=O)(=O)c1ccc(-c2cccc3nc(N)sc23)c(-c2nn[nH]n2)c1S(N)(=O)=O [Example 78, 3-(2-aminobenzo[d]thiazol-7-yl)-6-(2-aminoethylsulfonyl)-2-(2H-tetrazol-5-yl)benzenesulfonamide]	0.7813 µM	0.136 nM	0.0576 nM	0.441 nM	1.172 µM	1.50	1.172 µM	0.7813 µM	2.344 µM	
Cn1c(N)nc2c(-c3ccc(S(=O)(=O)CCN)c(S(N)(=O)=O)c3-c3nn[nH]n3)cccc21 [Example 79, 3-(2-amino-1-methyl-1H-benzo[d]imidazol-4-yl)-6-(2-aminoethylsulfonyl)-2-(2H-tetrazol-5-yl)benzenesulfonamide]	0.6406 µM	0.327 nM	0.354 nM		0.8906 µM	1.39	0.8906 µM	0.25 µM	1.281 µM	0.241 nM
Cc1ccc(-c2ccc(S(=O)(=O)CCN)c(S(N)(=O)=O)c2-c2nn[nH]n2)c2nc(N)sc12 [Example 80, 3-(2-amino-7-methylbenzo[d]thiazol-4-yl)-6-(2-aminoethylsulfonyl)-2-(2H-tetrazol-5-yl)benzenesulfonamide]	0.7813 µM	0.11 nM	0.0508 nM	0.085 nM	0.7813 µM	1.00	0.7813 µM	1.172 µM	1.563 µM	
NCCS(=O)(=O)c1ccc(-c2cncc3sc(N)nc23)c(-c2nn[nH]n2)c1S(N)(=O)=O [Example 81, 6-((2-aminoethyl)sulfonyl)-3-(2-aminothiazolo[5,4-c]pyridin-7-yl)-2-(2H-tetrazol-5-yl)benzenesulfonamide hydrochloride]	0.7813 µM	0.356 nM	0.29 nM		0.7813 µM	1.00	1.563 µM	0.7813 µM	3.125 µM	0.266 nM
CC(=O)Nc1nc2c(-c3ccc(S(=O)(=O)CCN)c(S(N)(=O)=O)c3-c3nn[nH]n3)cccc2s1 [Example 82, N-(4-(4-(2-aminoethylsulfonyl)-3-sulfamoyl-2-(2H-tetrazol-5-yl)phenyl)benzo[d]thiazol-2-yl)acetamide]	1.563 µM	0.131 nM	0.0871 nM	0.194 nM	3.125 µM	2.00	1.563 µM	1.563 µM	3.125 µM	
CS(=O)(=O)Nc1nc2c(-c3ccc(S(=O)(=O)CCN)c(S(N)(=O)=O)c3-c3nn[nH]n3)cccc2s1 [Example 83, 6-(2-aminoethylsulfonyl)-3-(2-(methylsulfonamido)benzo[d]thiazol-4-yl)-2-(2H-tetrazol-5-yl)benzenesulfonamide]	6.25 µM	0.263 nM	0.117 nM	0.341 nM	12.5 µM	2.00	6.25 µM	6.25 µM	12.5 µM	
CCOC(=O)Nc1nc2c(-c3ccc(S(=O)(=O)CCN)c(S(N)(=O)=O)c3-c3nn[nH]n3)cccc2s1 [Example 84, ethyl 4-(4-(2-aminoethylsulfonyl)-3-sulfamoyl-2-(2H-tetrazol-5-yl)phenyl)benzo[d]thiazol-2-ylcarbamate]	1.563 µM	0.14 nM	0.0781 nM	0.145 nM	6.25 µM	4.00	1.563 µM	1.563 µM	3.125 µM	
NCCS(=O)(=O)c1ccc(-c2cccc3sc(NC(N)=O)nc23)c(-c2nn[nH]n2)c1S(N)(=O)=O [Example 85, 6-(2-aminoethylsulfonyl)-2-(2H-tetrazol-5-yl)-3-(2-ureidobenzo[d]thiazol-4-yl)benzenesulfonamide]	0.7813 µM	0.0858 nM	0.0511 nM	0.144 nM	1.563 µM	2.00	0.7813 µM	0.3906 µM	1.563 µM	
N=C(N)c1nc2c(-c3ccc(S(=O)(=O)CCN)c(S(N)(=O)=O)c3-c3nn[nH]n3)cccc2s1 [Example 86, 4-(4-(2-aminoethylsulfonyl)-3-sulfamoyl-2-(2H-tetrazol-5-yl)phenyl)benzo[d]thiazole-2-carboximidamide]	0.3906 µM	0.141 nM	0.295 nM	0.869 nM	1.563 µM	4.00	0.7813 µM	0.7813 µM	0.7813 µM	
NCCS(=O)(=O)c1ccc(-c2cccc3sc(CN)nc23)c(-c2nn[nH]n2)c1S(N)(=O)=O [Example 87, 6-(2-aminoethylsulfonyl)-3-(2-(aminomethyl)benzo[d]thiazol-4-yl)-2-(2H-tetrazol-5-yl)benzenesulfonamide]	0.3906 µM	0.133 nM	0.475 nM	0.562 nM	0.7813 µM	2.00	0.7813 µM	0.7813 µM	0.7813 µM	
NCCS(=O)(=O)c1ccc(-c2cccc3sc(C(=O)O)nc23)c(-c2nn[nH]n2)c1S(N)(=O)=O [Example 88, 4-(4-(2-aminoethylsulfonyl)-3-sulfamoyl-2-(2H-tetrazol-5-yl)phenyl)benzo[d]thiazole-2-carboxylic acid]	3.125 µM	0.158 nM	0.0522 nM	0.144 nM	6.25 µM	2.00	6.25 µM	1.563 µM	12.5 µM	
NCCS(=O)(=O)c1ccc(-c2cccc3sc(C(N)=O)nc23)c(-c2nn[nH]n2)c1S(N)(=O)=O [Example 89, 4-(4-(2-aminoethylsulfonyl)-3-sulfamoyl-2-(2H-tetrazol-5-yl)phenyl)benzo[d]thiazole-2-carboxamide]	1.563 µM	0.152 nM	0.277 nM	0.601 nM	3.125 µM	2.00	1.563 µM	1.563 µM	3.125 µM	
CNc1nc2c(-c3ccc(S(=O)(=O)CCN)c(S(N)(=O)=O)c3-c3nn[nH]n3)cccc2s1 [Example 90, 6-(2-aminoethylsulfonyl)-3-(2-(methylamino)benzo[d]thiazol-4-yl)-2-(2H-tetrazol-5-yl)benzene sulfonamide]	0.7813 µM	0.146 nM	0.0746 nM	0.0995 nM	1.563 µM	2.00	1.563 µM	0.7813 µM	1.563 µM	
